Target: human mOR (Homo sapiens (Human), UniProt P35372)
Test: cell-based
Details: not given

human mOR, sequence (P35372 whole entry): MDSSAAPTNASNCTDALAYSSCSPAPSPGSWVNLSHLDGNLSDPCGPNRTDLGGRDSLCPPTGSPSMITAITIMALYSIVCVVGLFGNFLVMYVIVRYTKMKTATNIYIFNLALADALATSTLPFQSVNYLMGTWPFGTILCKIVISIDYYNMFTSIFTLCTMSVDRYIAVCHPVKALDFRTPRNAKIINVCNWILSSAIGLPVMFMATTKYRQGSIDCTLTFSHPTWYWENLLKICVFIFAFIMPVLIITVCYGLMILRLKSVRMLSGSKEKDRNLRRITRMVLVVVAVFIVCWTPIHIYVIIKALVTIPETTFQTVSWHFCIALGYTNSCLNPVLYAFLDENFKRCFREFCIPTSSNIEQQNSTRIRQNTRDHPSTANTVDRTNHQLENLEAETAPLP

SMILES	IC50
CN(C)[C@H](CNC(=O)C[C@H](c1ccncc1)C1(C(F)(F)F)CC1)Cc1ccc(O)c(Cl)c1 [Compound 278, (R)-N-((S)-3-(3-chloro-4-hydroxyphenyl)-2-(dimethylamino)propyl)-3-(pyridin-4-yl)-3-(1-(trifluoromethyl)cyclopropyl)propanamide]	< 300 nM
CN(C)[C@H](CNC(=O)C[C@@H](CC1CC1)c1cccnc1)Cc1ccc(O)c(Cl)c1 [Compound 279, (R)-N-((S)-3-(3-chloro-4-hydroxyphenyl)-2-(dimethylamino)propyl)-4-cyclopropyl-3-(pyridin-3-yl)butanamide]	< 300 nM
CN(C)[C@H](CNC(=O)C[C@H](c1cccnc1)C1CC1)Cc1ccc(O)c(Cl)c1 [Compound 281, (S)-N-((S)-3-(3-chloro-4-hydroxyphenyl)-2-(dimethylamino)propyl)-3-cyclopropyl-3-(pyridin-3-yl)propanamide]	< 300 nM
CN(C)[C@H](CNC(=O)C[C@@H](CC1CC1)c1cncnc1)Cc1ccc(O)c(Cl)c1 [Compound 282, (R)-N-((S)-3-(3-chloro-4-hydroxyphenyl)-2-(dimethylamino)propyl)-4-cyclopropyl-3-(pyrimidin-5-yl)butanamide]	< 300 nM
Cc1ncc([C@@H](CC(=O)NC[C@H](Cc2ccc(O)c(Cl)c2)N(C)C)C2(C(F)(F)F)CC2)cn1 [Compound 283, (R)-N-((S)-3-(3-chloro-4-hydroxyphenyl)-2-(dimethylamino)propyl)-3-(2-methylpyrimidin-5-yl)-3-(1-(trifluoromethyl)cyclopropyl)propanamide]	< 300 nM
CN(C)[C@H](CNC(=O)CC(c1ccncc1)C1(C(F)(F)F)CC1)Cc1ccc(O)c(Cl)c1 (stereo partly drawn) [Compound 284, N-((S)-3-(3-chloro-4-hydroxyphenyl)-2-(dimethylamino)propyl)-3-(pyridin-4-yl)-3-(1-(trifluoromethyl)cyclopropyl)propanamide]	< 300 nM
CN(C)[C@H](CNC(=O)CC(c1ncccn1)C1(C(F)(F)F)CC1)Cc1ccc(O)c(Cl)c1 (stereo partly drawn) [Compound 285, N-((S)-3-(3-chloro-4-hydroxyphenyl)-2-(dimethylamino)propyl)-3-(pyrimidin-2-yl)-3-(1-(trifluoromethyl)cyclopropyl)propanamide]	< 300 nM
CN(C)[C@H](CNC(=O)C[C@H](CC1CC1)c1cccnc1)Cc1ccc(O)c(Cl)c1 [Compound 286, (S)-N-((S)-3-(3-chloro-4-hydroxyphenyl)-2-(dimethylamino)propyl)-4-cyclopropyl-3-(pyridin-3-yl)butanamide]	< 300 nM
CN(C)[C@H](CNC(=O)CC(c1cccnc1)C1(C(F)(F)F)CC1)Cc1ccc(O)c(Cl)c1 (stereo partly drawn) [Compound 287, N-((S)-3-(3-chloro-4-hydroxyphenyl)-2-(dimethylamino)propyl)-3-(pyridin-3-yl)-3-(1-(trifluoromethyl)cyclopropyl)propanamide]	< 300 nM
CN(C)[C@H](CNC(=O)C[C@H](c1cccnc1)C1(C(F)(F)F)CC1)Cc1ccc(O)c(F)c1 [Compound 290, (R)-N-((S)-2-(dimethylamino)-3-(3-fluoro-4-hydroxyphenyl)propyl)-3-(pyridin-3-yl)-3-(1-(trifluoromethyl)cyclopropyl)propanamide]	< 300 nM
CN(C)[C@H](CNC(=O)CC(c1cccnc1)C1(C(F)(F)F)CC1)Cc1ccc(O)cc1 (stereo partly drawn) [Compound 291, N-((S)-2-(dimethylamino)-3-(4-hydroxyphenyl)propyl)-3-(pyridin-3-yl)-3-(1-(trifluoromethyl)cyclopropyl)propanamide]	< 300 nM
Cc1ccc([C@@H](CC(=O)NC[C@H](Cc2ccc(O)cc2)N(C)C)C2(C(F)(F)F)CC2)s1 [Compound 293, (S)-N-((S)-2-(dimethylamino)-3-(4-hydroxyphenyl)propyl)-3-(5-methylthiophen-2-yl)-3-(1-(trifluoromethyl)cyclopropyl)propanamide]	< 300 nM
CN(C)[C@H](CNC(=O)C[C@H](c1ccsc1)C1(C(F)(F)F)CC1)Cc1ccc(O)cc1 [Compound 294, (S)-N-((S)-2-(dimethylamino)-3-(4-hydroxyphenyl)propyl)-3-(thiophen-3-yl)-3-(1-(trifluoromethyl)cyclopropyl)propanamide]	< 300 nM
Cc1ncc([C@@H](CC(=O)NC[C@H](Cc2ccc(O)cc2)N(C)C)C2(C(F)(F)F)CC2)s1 [Compound 295, (S)-N-((S)-2-(dimethylamino)-3-(4-hydroxyphenyl)propyl)-3-(2-methylthiazol-5-yl)-3-(1-(trifluoromethyl)cyclopropyl)propanamide]	< 300 nM
CN(C)[C@H](CNC(=O)C[C@H](c1cncs1)C1(C(F)(F)F)CC1)Cc1ccc(O)cc1 [Compound 296, (S)-N-((S)-2-(dimethylamino)-3-(4-hydroxyphenyl)propyl)-3-(thiazol-5-yl)-3-(1-(trifluoromethyl)cyclopropyl)propanamide]	< 300 nM
CC(C)C[C@H](CC(=O)NC[C@H](Cc1ccc(O)cc1)N(C)C)c1cccnc1 [Compound 297, (R)-N-((S)-2-(dimethylamino)-3-(4-hydroxyphenyl)propyl)-5-methyl-3-(pyridin-3-yl)hexanamide]	< 300 nM
CN(C)[C@H](CNC(=O)C[C@H](CC1CC1)c1ccncc1)Cc1ccc(O)cc1 [Compound 298, (S)-4-cyclopropyl-N-((S)-2-(dimethylamino)-3-(4-hydroxyphenyl)propyl)-3-(pyridin-4-yl)butanamide]	< 300 nM
Cc1cc([C@@H](CC(=O)NC[C@H](Cc2ccc(O)cc2)N(C)C)C2(C(F)(F)F)CC2)ccn1 [Compound 299, (R)-N-((S)-2-(dimethylamino)-3-(4-hydroxyphenyl)propyl)-3-(2-methylpyridin-4-yl)-3-(1-(trifluoromethyl)cyclopropyl) propanamide]	< 300 nM
Cc1cncc([C@@H](CC(=O)NC[C@H](Cc2ccc(O)cc2)N(C)C)C2(C(F)(F)F)CC2)c1 [Compound 300, (R)-N-((S)-2-(dimethylamino)-3-(4-hydroxyphenyl)propyl)-3-(5-methylpyridin-3-yl)-3-(1-(trifluoromethyl)cyclopropyl)propanamide]	< 300 nM
Cc1ccc([C@@H](CC(=O)NC[C@H](Cc2ccc(O)cc2)N(C)C)C2(C(F)(F)F)CC2)cn1 [Compound 302, (R)-N-((S)-2-(dimethylamino)-3-(4-hydroxyphenyl)propyl)-3-(6-methylpyridin-3-yl)-3-(1-(trifluoromethyl)cyclopropyl) propanamide]	< 300 nM
CN(C)[C@H](CNC(=O)C[C@H](c1cccnc1)C1(C)CC1)Cc1ccc(O)cc1 [Compound 303, (S)-N-((S)-2-(dimethylamino)-3-(4-hydroxyphenyl)propyl)-3-(1-methylcyclopropyl)-3-(pyridin-3-yl)propanamide]	< 300 nM
CC(C)[C@H](CC(=O)NC[C@H](Cc1ccc(O)cc1)N(C)C)c1cccnc1 [Compound 304, (S)-N-((S)-2-(dimethylamino)-3-(4-hydroxyphenyl)propyl)-4-methyl-3-(pyridin-3-yl)pentanamide]	< 300 nM
CN(C)[C@H](CNC(=O)C[C@H](c1cccnc1)C1(C(F)(F)F)CC1)Cc1ccc(O)cc1 [Compound 306, (R)-N-((S)-2-(dimethylamino)-3-(4-hydroxyphenyl)propyl)-3-(pyridin-3-yl)-3-(1-(trifluoromethyl)cyclopropyl)propanamide]	< 300 nM
CN(C)[C@H](CNC(=O)C[C@@H](CC1CC1)c1cncnc1)Cc1ccc(O)cc1 [Compound 307, (R)-4-cyclopropyl-N-((S)-2-(dimethylamino)-3-(4-hydroxyphenyl)propyl)-3-(pyrimidin-5-yl)butanamide]	< 300 nM
CN(C)[C@H](CNC(=O)CC(c1ccncc1)C1(C(F)(F)F)CC1)Cc1ccc(O)cc1 (stereo partly drawn) [Compound 309, N-((S)-2-(dimethylamino)-3-(4-hydroxyphenyl)propyl)-3-(pyridin-4-yl)-3-(1-(trifluoromethyl)cyclopropyl)propanamide]	< 300 nM
CN(C)[C@H](CNC(=O)C[C@@H](CC1CC1)c1cccnc1)Cc1ccc(O)cc1 [Compound 310, (R)-4-cyclopropyl-N-((S)-2-(dimethylamino)-3-(4-hydroxyphenyl)propyl)-3-(pyridin-3-yl)butanamide]	< 300 nM
Cc1ncc([C@@H](CC(=O)NC[C@H](Cc2ccc(O)cc2)N(C)C)C2(C(F)(F)F)CC2)cn1 [Compound 312, (R)-N-((S)-2-(dimethylamino)-3-(4-hydroxyphenyl)propyl)-3-(2-methylpyrimidin-5-yl)-3-(1-(trifluoromethyl)cyclopropyl)propanamide]	< 300 nM
CN(C)[C@H](CNC(=O)CC(c1ncccn1)C1(C(F)(F)F)CC1)Cc1ccc(O)cc1 (stereo partly drawn) [Compound 313, N-((S)-2-(dimethylamino)-3-(4-hydroxyphenyl)propyl)-3-(pyrimidin-2-yl)-3-(1-(trifluoromethyl)cyclopropyl)propanamide]	< 300 nM
CN(C)[C@H](CNC(=O)CC(c1ccc(C(F)(F)F)nc1)C1(C(F)(F)F)CC1)Cc1ccc(O)cc1 (stereo partly drawn) [Compound 314, N-((S)-2-(dimethylamino)-3-(4-hydroxyphenyl)propyl)-3-(1-(trifluoromethyl)cyclopropyl)-3-(6-(trifluoromethyl)pyridin-3-yl)propanamide]	< 300 nM

Same assay, conditions: CHO Tag-lite human mOR stable cell line; forskolin 4 μM and DAMGO at EC90; read-out: mOR cAMP Antagonist Assay IC50

SMILES	IC50
CN(C)[C@H](CNC(=O)C[C@H](c1cncs1)C1CC1)Cc1ccc(O)cc1 [Compound 292, (S)-3-cyclopropyl-N-((S)-2-(dimethylamino)-3-(4-hydroxyphenyl)propyl)-3-(thiazol-5-yl)propanamide]	300 to 3000 nM
CN(C)[C@H](CNC(=O)C[C@H](c1cccnc1)C1CC1)Cc1ccc(O)cc1 [Compound 308, (S)-3-cyclopropyl-N-((S)-2-(dimethylamino)-3-(4-hydroxyphenyl)propyl)-3-(pyridin-3-yl)propanamide]	300 to 3000 nM
Cc1ncc([C@@H](CC(=O)NC[C@H](Cc2ccc(O)cc2)N(C)C)C2CC2)cn1 [Compound 311, (S)-3-cyclopropyl-N-((S)-2-(dimethylamino)-3-(4-hydroxyphenyl)propyl)-3-(2-methylpyrimidin-5-yl)propanamide]	300 to 3000 nM
